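Cultured in 96-well plates, cells were exposed to test compound for 48 hours across five concentrations. At the GI50, growth is halved. Definition used: TGI = concentration required for complete inhibition of growth.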
Key:
Assay in all cases: DTP human tumour cell line panel, 48 h
OVCAR-3 ovarian = test system: OVCAR-3 ovarian
MALME-3M melanoma = test system: MALME-3M melanoma
IGROV1 ovarian = test system: IGROV1 ovarian
SNB-19 CNS = test system: SNB-19 CNS
SNB-75 CNS = test system: SNB-75 CNS
TK-10 renal = test system: TK-10 renal
CAKI-1 renal = test system: CAKI-1 renal
HOP-62 NSCLC = test system: HOP-62 NSCLC
HL-60(TB) leukemia = test system: HL-60(TB) leukemia
786-0 renal = test system: 786-0 renal
K-562 leukemia = test system: K-562 leukemia
DU-145 prostate = test system: DU-145 prostate
SF-539 CNS = test system: SF-539 CNS
SF-295 CNS = test system: SF-295 CNS
HCC-2998 colon = test system: HCC-2998 colon
M14 melanoma = test system: M14 melanoma
MOLT-4 leukemia = test system: MOLT-4 leukemia
OVCAR-5 ovarian = test system: OVCAR-5 ovarian
SK-MEL-2 melanoma = test system: SK-MEL-2 melanoma
PC-3 prostate = test system: PC-3 prostate
HOP-92 NSCLC = test system: HOP-92 NSCLC
MCF7 breast = test system: MCF7 breast
A498 renal = test system: A498 renal
RPMI-8226 leukemia = test system: RPMI-8226 leukemia
COLO 205 colon = test system: COLO 205 colon
OVCAR-8 ovarian = test system: OVCAR-8 ovarian
SK-MEL-5 melanoma = test system: SK-MEL-5 melanoma
UACC-62 melanoma = test system: UACC-62 melanoma
NCI/ADR-RES ovarian = test system: NCI/ADR-RES ovarian
UO-31 renal = test system: UO-31 renal
UACC-257 melanoma = test system: UACC-257 melanoma
HS 578T breast = test system: HS 578T breast
NCI-H226 lung = test system: NCI-H226 lung
SF-268 CNS = test system: SF-268 CNS
NCI-H460 lung = test system: NCI-H460 lung
SK-MEL-28 melanoma = test system: SK-MEL-28 melanoma
HT29 colon = test system: HT29 colon
EKVX NSCLC = test system: EKVX NSCLC
OVCAR-4 ovarian = test system: OVCAR-4 ovarian
HCT-15 colon = test system: HCT-15 colon
NCI-H522 lung = test system: NCI-H522 lung
ACHN renal = test system: ACHN renal
KM12 colon = test system: KM12 colon
RXF 393 renal = test system: RXF 393 renal
MDA-MB-435 = test system: MDA-MB-435
SW-620 colon = test system: SW-620 colon
NCI-H23 lung = test system: NCI-H23 lung
SR leukemia = test system: SR leukemia
T-47D breast = test system: T-47D breast
LOX IMVI melanoma = test system: LOX IMVI melanoma
A549 NSCLC = test system: A549 NSCLC
BT-549 breast = test system: BT-549 breast
U251 CNS = test system: U251 CNS
MDA-MB-231 breast = test system: MDA-MB-231 breast
SN12C renal = test system: SN12C renal
SK-OV-3 ovarian = test system: SK-OV-3 ovarian
HCT-116 colon = test system: HCT-116 colon

C[C@H]1O[C@@H](O[C@H]2[C@@H](O)C[C@H](O[C@H]3[C@@H](O)C[C@H](O[C@H]4CC[C@]5(C)C6CC[C@]7(C)[C@@H](C8=CC(=O)OC8)CC[C@]7(O)C6CC[C@@H]5C4)O[C@@H]3C)O[C@@H]2C)C[C@H](O)[C@@H]1O (some centres undefined)
TGI (OVCAR-3 ovarian): 43 nM
GI50 (MALME-3M melanoma): 19 nM
TGI (MALME-3M melanoma): 78.3 nM
GI50 (IGROV1 ovarian): 26.1 nM
TGI (IGROV1 ovarian): 2220 nM
GI50 (SNB-19 CNS): 30 nM
TGI (SNB-19 CNS): 94.8 nM
GI50 (SNB-75 CNS): 18.2 nM
TGI (SNB-75 CNS): 102 nM
GI50 (TK-10 renal): 16.5 nM
TGI (TK-10 renal): 50.4 nM
GI50 (CAKI-1 renal): 12.6 nM
TGI (CAKI-1 renal): 33.9 nM
GI50 (HOP-62 NSCLC): 11.8 nM
TGI (HOP-62 NSCLC): 29.5 nM
GI50 (HL-60(TB) leukemia): 11.4 nM
TGI (HL-60(TB) leukemia): 26.1 nM
GI50 (786-0 renal): 17.2 nM
TGI (786-0 renal): 59.6 nM
GI50 (K-562 leukemia): 15.9 nM
TGI (K-562 leukemia): 79.9 nM
GI50 (DU-145 prostate): 11.3 nM
TGI (DU-145 prostate): 24.9 nM
GI50 (SF-539 CNS): 14.1 nM
TGI (SF-539 CNS): 37.3 nM
GI50 (SF-295 CNS): 14 nM
TGI (SF-295 CNS): 54.5 nM
GI50 (HCC-2998 colon): 36.1 nM
TGI (HCC-2998 colon): 174 nM
GI50 (M14 melanoma): 32.8 nM
TGI (M14 melanoma): 98.6 nM
GI50 (MOLT-4 leukemia): 11.3 nM
TGI (MOLT-4 leukemia): 34.1 nM
GI50 (OVCAR-5 ovarian): 38.3 nM
TGI (OVCAR-5 ovarian): 111 nM
GI50 (SK-MEL-2 melanoma): 19.2 nM
TGI (SK-MEL-2 melanoma): 67.5 nM
GI50 (PC-3 prostate): 19.4 nM
TGI (PC-3 prostate): 106 nM
GI50 (HOP-92 NSCLC): 35.4 nM
TGI (HOP-92 NSCLC): 149 nM
GI50 (MCF7 breast): 18.1 nM
TGI (MCF7 breast): 110 nM
GI50 (A498 renal): 35.1 nM
TGI (A498 renal): 262 nM
GI50 (RPMI-8226 leukemia): 19.4 nM
TGI (RPMI-8226 leukemia): 135 nM
GI50 (COLO 205 colon): 30.9 nM
TGI (COLO 205 colon): 102 nM
GI50 (OVCAR-8 ovarian): 17.8 nM
TGI (OVCAR-8 ovarian): 64.8 nM
GI50 (SK-MEL-5 melanoma): 15.6 nM
TGI (SK-MEL-5 melanoma): 49.3 nM
GI50 (UACC-62 melanoma): 19.2 nM
TGI (UACC-62 melanoma): 75 nM
GI50 (NCI/ADR-RES ovarian): 14.4 nM
TGI (NCI/ADR-RES ovarian): 43.5 nM
GI50 (UO-31 renal): 18.1 nM
TGI (UO-31 renal): 72.2 nM
GI50 (UACC-257 melanoma): 20.3 nM
TGI (UACC-257 melanoma): 73.4 nM
GI50 (HS 578T breast): 13 nM
TGI (HS 578T breast): 1570 nM
GI50 (NCI-H226 lung): 47.6 nM
TGI (NCI-H226 lung): 115 nM
GI50 (SF-268 CNS): 15.9 nM
TGI (SF-268 CNS): 57.8 nM
GI50 (NCI-H460 lung): 9.73 nM
TGI (NCI-H460 lung): 23.1 nM
GI50 (SK-MEL-28 melanoma): 31.3 nM
TGI (SK-MEL-28 melanoma): 101 nM
GI50 (HT29 colon): 19.3 nM
TGI (HT29 colon): 65.3 nM
GI50 (EKVX NSCLC): 14.1 nM
TGI (EKVX NSCLC): 38.3 nM
TGI (OVCAR-4 ovarian): 73.2 nM
GI50 (HCT-15 colon): 25.7 nM
TGI (HCT-15 colon): 98.2 nM
TGI (NCI-H522 lung): 31.9 nM
GI50 (ACHN renal): 12.6 nM
TGI (ACHN renal): 39.1 nM
GI50 (KM12 colon): 24.7 nM
TGI (KM12 colon): 103 nM
GI50 (RXF 393 renal): 14.2 nM
TGI (RXF 393 renal): 43.9 nM
GI50 (MDA-MB-435): 17 nM
TGI (MDA-MB-435): 66.6 nM
GI50 (SW-620 colon): 17.8 nM
TGI (SW-620 colon): 67.8 nM
GI50 (NCI-H23 lung): 11.7 nM
TGI (NCI-H23 lung): 35.5 nM
TGI (SR leukemia): 51.2 nM
GI50 (T-47D breast): 17.2 nM
TGI (T-47D breast): 60.8 nM
GI50 (LOX IMVI melanoma): 15.6 nM
TGI (LOX IMVI melanoma): 54.9 nM
GI50 (A549 NSCLC): 7.76 nM
TGI (A549 NSCLC): 15.5 nM
GI50 (BT-549 breast): 16.3 nM
TGI (BT-549 breast): 50.8 nM
GI50 (U251 CNS): 18.6 nM
TGI (U251 CNS): 67.6 nM
GI50 (MDA-MB-231 breast): 62.1 nM
TGI (MDA-MB-231 breast): 353 nM
GI50 (SN12C renal): 16.7 nM
TGI (SN12C renal): 112 nM
GI50 (SK-OV-3 ovarian): 19 nM
TGI (SK-OV-3 ovarian): 67 nM
TGI (HCT-116 colon): 49.4 nM

Source: PubChem BioAssay (NCI)
